Data taken from patent US20080160099A1, “Methods For Treating or Preventing a Vascular Disease” (THE TRUSTEES OF COLUMBIA UNIVERSITY IN THE CITY OF NEW YORK, priority 2004, published 2008).

Assays:
Format in all cases: biochemical
MMP-2 = target: T1, MMP-2 (Homo sapiens, UniProt P08253); assay: MMP-2 activity in lysates of fibroblasts cultured from AAA specimens, gelatin zymography with densitometry; settings: for MMP-2 inhibitory ability (in words): aneurysmal fibroblast MMP-2; for MMP-2 Inhibitory Activity: relative, aneurysmal fibroblast lysates, 1 hour incubation on ice
T1 construct: endogenous in cells; host or cells: fibroblasts cultured from AAA (abdominal aortic aneurysm) specimens
T1 sequence (P08253 110-660): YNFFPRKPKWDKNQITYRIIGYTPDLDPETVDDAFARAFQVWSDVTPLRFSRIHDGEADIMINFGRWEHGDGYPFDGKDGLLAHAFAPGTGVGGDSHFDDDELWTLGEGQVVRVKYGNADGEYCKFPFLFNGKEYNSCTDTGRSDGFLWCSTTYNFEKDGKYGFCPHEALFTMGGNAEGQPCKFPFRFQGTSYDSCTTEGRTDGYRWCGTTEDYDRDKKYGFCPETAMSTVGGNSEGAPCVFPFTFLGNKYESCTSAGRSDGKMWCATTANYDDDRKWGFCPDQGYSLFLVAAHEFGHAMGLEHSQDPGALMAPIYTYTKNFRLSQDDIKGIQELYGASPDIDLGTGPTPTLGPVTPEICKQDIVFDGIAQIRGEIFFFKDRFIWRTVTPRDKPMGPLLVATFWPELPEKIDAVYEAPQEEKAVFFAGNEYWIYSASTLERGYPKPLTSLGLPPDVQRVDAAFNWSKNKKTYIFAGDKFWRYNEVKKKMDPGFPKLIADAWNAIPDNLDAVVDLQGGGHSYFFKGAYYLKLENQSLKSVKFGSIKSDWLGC
Protocol: Properties of different test compounds against MMP-2 activity of aneurysmal fibroblast origin were examined on 10% polyacrylamide gels containing 1.0 mg/mL of gelatin. Fibroblasts cultured from AAA specimens were lysed using the CellLytic-M lysis/extraction reagent. The protein concentration of each supernatant was determined using the Bradford method using bovine serum albumin as a standard. The aortic fibroblast lysates were incubated alone (control) or with an illustrative Compound or Extract of the Invention at various concentrations for 1 hour on ice. After test compound incubation, equivalent amounts of proteins (30 μg) were mixed with an equal volume of sample buffer (2% SDS, 125 mM Tris-HCL, pH 6.8, 10% glycerol and 0.001% bromophenol blue) and the resulting mixture was subjected to electrophoresis in Trir-glycine el. buffer (25 mMTris pH 8.3, 250 mM Glycine, 0.1% SDS) under denatured but non-reduced conditions. After completion of electrophoresis, the gels were incubated in 2% Triton X-100 for 30 min at room temperature to ensure complete removal of SDS. The gels were then incubated at 37° C. overnight in development buffer (0.005M Tris-HCl (pH 7.5), 0.2MNaCl, 0.005MCaCl2, and 0.02% Brij-35) (Bio-Rad). Gels were stained with 0.05% Coomassie blue R250 (Bio-Rad) for 30 min and destained twice in a mixture of 40% methanol and 10% acetic acid for 20 min. Enzyme activity was detected as unstained bands on a blue background. Quantity One (Bio-Rad Version 4.3.1) was used as a densitometer to quantitate test compound inhibitory ability.

total complement = assay: Total complement activity (CH50) in human serum; settings: 30 minutes at 37° C.
Protocol: Blood was collected from a healthy human donor and allowed to clot at room temperature for 60 minutes. The serum was separated from the clotted blood and transferred to a clean tube. Fucosylated chondroitin sulfate (FCS) was incubated in concentrations of 0.1 mg/mL, 0.4 mg/mL and 1 mg/mL for 30 minutes at 37° C. and the complement was examined by assaying total complement activity (CH50). Complement inhibition was about 40% at a FCS concentration of 0.1 mg/mL, about 83% at a concentration of 0.4 mg/mL and complete at a concentration of 1.0 mg/mL.

C3a = assay: Complement factor C3a levels in normal human serum, with or without HAGG; settings: alone and with HAGG, 30 minutes at 37° C.
Protocol: (§1) An experiment to measure the complement factors C3a and C5a was carried out at […] for 30 minutes using heat-aggregated gamma globulin (HAGG, at 14 mg/mL), a complement activator with known activity, as a positive control.
(§2) Four separate mixtures were prepared by mixing 8 parts of normal human serum with: (1) 2 parts saline, (2) 1 part saline and 1 part HAGG, (3) 1 part saline and 1 part fucosylated chondroitin sulfate (FCS), or (4) 1 part HAGG and 1 part FCS. These four mixtures were then incubated for 30 minutes at 37° C. and the complement was examined by assaying for levels of C3a and C5a.

C5a = assay: Complement factor C5a levels in normal human serum, with or without HAGG; settings: alone and with HAGG, 30 minutes at 37° C.
Protocol: as §1, §2

MMP-2 Inhibitory Activity (MMP-2) | Compound | MMP-2 inhibitory ability (in words) (MMP-2) | Complement inhibition (CH50) (total complement; 0.1 mg/mL) | Complement inhibition (CH50) (total complement; 0.4 mg/mL) | Complement inhibition (CH50) (total complement; 1.0 mg/mL) | inhibitory activity toward C3a (C3a) | inhibitory activity toward C5a (C5a)
+ | CCC(C)CCCCCCCCCCC(=O)O (centres unmarked) [12-methyltetradecanoic acid] | inhibit aneurysmal fibroblast MMP-2 activity |  |  |  |  | 
+++ | fucosylated chondroitin sulfate | inhibit aneurysmal fibroblast MMP-2 activity | about 40% | about 83% | complete | strong inhibitory activity | strong inhibitory activity

Compound | MMP-2 Inhibitory Activity (MMP-2) | MMP-2 inhibitory ability (in words) (MMP-2) | Complement inhibition (CH50) (total complement; 0.1 mg/mL) | Complement inhibition (CH50) (total complement; 0.4 mg/mL) | Complement inhibition (CH50) (total complement; 1.0 mg/mL) | inhibitory activity toward C3a (C3a) | inhibitory activity toward C5a (C5a)
Oc1cc(O)c2c(c1)O[C@H](c1cc(O)c(O)c(O)c1)[C@H](O)C2 [(−)-epigallocatechin] | + | inhibit aneurysmal fibroblast MMP-2 activity |  |  |  |  | 
